Data as given in patent US11332472B2, “Substituted piperidines as inhibitors of ubiquitin specific protease 7” (LES LABORATOIRES SERVIER, priority 2017, dated 2022).

Columns and labels:
[1] = molecular target: T1, USP7 (Homo sapiens, UniProt Q93009, C315A); test: Inhibition of USP7 by Fluorescence Intensity (FLINT) readings, Ubiquitin-Rhodamine-110 substrate; format: biochemical; details: 0.25 nM His-His-USP7 (aa208-560, [C315A]); compound 60 minutes at 30° C.; 500 nM Ubiquitin-Rhodamine substrate; 11-point curves
T1 construct: 0.25 nM His-His-USP7 (aa208-560, [C315A]) was incubated with compound; His-His (N)
T1 sequence (Q93009 208-560 C315A): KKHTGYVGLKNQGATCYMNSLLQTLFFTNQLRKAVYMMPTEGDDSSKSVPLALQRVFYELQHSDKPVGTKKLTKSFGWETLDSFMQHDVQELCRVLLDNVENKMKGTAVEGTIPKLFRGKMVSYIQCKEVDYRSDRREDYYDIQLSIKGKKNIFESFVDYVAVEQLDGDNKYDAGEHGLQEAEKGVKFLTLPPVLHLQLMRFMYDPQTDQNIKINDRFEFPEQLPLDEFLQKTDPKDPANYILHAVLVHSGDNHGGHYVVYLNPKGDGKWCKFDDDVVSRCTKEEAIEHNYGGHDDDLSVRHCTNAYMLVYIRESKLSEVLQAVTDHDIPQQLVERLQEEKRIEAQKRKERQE
Summary of the method: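 His-His-USP7 (aa208-560, C315A) at 0.25 nM was preincubated with compound for 60 min at 30 °C in 100 mM Bicine pH 8.0, 0.01% Triton X-100, 1 mM TCEP, 10% DMSO. 500 nM ubiquitin-rhodamine-110 was then added, with fluorescence (Ex 485/Em 535 nm) read every 3 min for 21 min. IC50 came from kinetic-rate inhibition, 11-point curves, 4-parameter fit.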

[2] = test system: MM 1S multiple myeloma tumour cell line; test: In vitro cytotoxicity, MTT assay, MM1S cells; format: cell-based; details: Homo sapiens, MM1.S, 96 hours exposure
Procedure: The cytotoxicity studies were evaluated by MTT assay and carried out on MM 1S multiple myeloma or Z138 mantle cell lymphoma tumour cell lines. The cells are distributed onto microplates and exposed to the test compounds for 96 hours. The cell viability is then quantified by a colorimetric assay, the Microculture Tetrazolium Assay (Carmichael et. al., Cancer Res. […], 47, 936-942).

IC50 [1] | Compound | IC50 [2]
31.6 nM | O=C([C@@H]1CCCC[C@H]1c1ccccc1)N1CCC(O)(Cn2cnc3c(ccn3-c3ccc(Cl)cc3)c2=O)CC1 (relative stereo) [Example 22, 7-(4-chlorophenyl)-3-[[4-hydroxy-1-(trans-2-phenylcyclohexanecarbonyl)-4-piperidyl]methyl]pyrrolo[2,3-d]pyrimidin-4-one] | 9.88 nM
31.5 nM | CN1C(=O)CC[C@@H](C(=O)N2CCC(O)(Cn3cnc4c(ccn4-c4ccccc4)c3=O)CC2)[C@@H]1c1ccccc1 (single isomer, unassigned) [Example 27, 3-[[4-hydroxy-1-[trans-1-methyl-6-oxo-2-phenyl-piperidine-3-carbonyl]-4-piperidyl]methyl]-7-phenyl-pyrrolo[2,3-d]pyrimidin-4-one] | 46.5 nM
75.3 nM | O=C([C@@H]1CCC(F)(F)C[C@H]1c1ccccc1)N1CCC(O)(Cn2cnc3c(ccn3-c3ccccc3)c2=O)CC1 (single isomer, unassigned) [Example 36, 3-[[1-[trans-4,4-difluoro-2-phenyl-cyclohexanecarbonyl]-4-hydroxy-4-piperidyl]methyl]-7-phenyl-pyrrolo[2,3-d]pyrimidin-4-one] | 126 nM
33.5 nM | COc1ccc(-n2ccc3c(=O)n(CC4(O)CCN(C(=O)[C@@H]5CCCC[C@H]5n5cccc5)CC4)cnc32)cc1 (single isomer, unassigned) [Example 17, 3-[[4-hydroxy-1-[trans-2-pyrrol-1-ylcyclohexanecarbonyl]-4-piperidyl]methyl]-7-(4-methoxyphenyl)pyrrolo[2,3-d]pyrimidin-4-one] | 4.21 nM
71.8 nM | O=C([C@@H]1CCCC(F)(F)[C@H]1c1ccccc1)N1CCC(O)(Cn2cnc3c(ccn3-c3ccccc3)c2=O)CC1 (relative stereo) [Example 52, 3-[[1-[trans-3,3-difluoro-2-phenyl-cyclohexanecarbonyl]-4-hydroxy-4-piperidyl]methyl]-7-phenyl-pyrrolo[2,3-d]pyrimidin-4-one] | 100 nM
71.1 nM | O=C([C@@H]1CCCC[C@H]1n1cccc1)N1CCC(O)(Cn2cnc3c(ccn3-c3ccccc3)c2=O)CC1 (racemic) [Example 12, 3-[[4-hydroxy-1-[trans-2-pyrrol-1-ylcyclohexanecarbonyl]-4-piperidyl]methyl]-7-phenyl-pyrrolo[2,3-d]pyrimidin-4-one] | 34.5 nM
217 nM | COc1ccc(-n2ccc3c(=O)n(CC4(O)CCN(C(=O)[C@@H]5CCCO[C@H]5c5ccccc5)CC4)cnc32)cc1 (relative stereo) [Example 24, 3-[[4-hydroxy-1-[trans-2-phenyltetrahydropyran-3-carbonyl]-4-piperidyl]methyl]-7-(4-methoxyphenyl)pyrrolo[2,3-d]pyrimidin-4-one] | 146 nM
35.3 nM | O=C([C@@H]1CC(F)(F)CC[C@H]1c1ccccc1)N1CCC(O)(Cn2cnc3c(ccn3-c3ccccc3)c2=O)CC1 (single isomer, unassigned) [Example 32, 3-[[1-[trans-5,5-difluoro-2-phenyl-cyclohexanecarbonyl]-4-hydroxy-4-piperidyl]methyl]-7-phenyl-pyrrolo[2,3-d]pyrimidin-4-one] | 15.8 nM
26.1 nM | COc1ccc(-n2ccc3c(=O)n(CC4(O)CCN(C(=O)[C@@H]5CCCC[C@H]5n5cccc5)CC4)cnc32)cc1 (racemic) [Example 15] | 8.76 nM
59.1 nM | COc1ccc(-n2ccc3c(=O)n(CC4(O)CCN(C(=O)[C@@H]5CCC(F)(F)C[C@H]5c5ccoc5)CC4)cnc32)cc1 (single isomer, unassigned) [Example 75, 3-[[1-[trans-4,4-difluoro-2-(3-furyl)cyclohexanecarbonyl]-4-hydroxy-4-piperidyl]methyl]-7-(4-methoxyphenyl)pyrrolo[2,3-d]pyrimidin-4-one] | 3.29 nM
13 nM | COc1ccc(-n2ccc3c(=O)n(CC4(O)CCN(C(=O)[C@@H]5CCCC[C@H]5c5ccc(F)cc5)CC4)cnc32)cc1 (single isomer, unassigned) [Example 41, 3-[[1-[trans-2-(4-fluorophenyl)cyclohexanecarbonyl]-4-hydroxy-4-piperidyl]methyl]-7-(4-methoxyphenyl)pyrrolo[2,3-d]pyrimidin-4-one] | 7.22 nM
15.8 nM | O=C(Cc1ccc2c(c1)NC(=O)C2)Nc1ccc2ncn(CC3(O)CCN(C(=O)[C@@H]4CCCC[C@H]4c4ccccc4)CC3)c(=O)c2n1 (relative stereo) [Example 102, N-[3-[[4-hydroxy-1-(trans-2-phenylcyclohexanecarbonyl)-4-piperidyl]methyl]-4-oxo-pyrido[3,2-d]pyrimidin-6-yl]-2-(2-oxoindolin-6-yl)acetamide] | 5390 nM
9.81 nM | O=C([C@@H]1CCCC[C@H]1c1ccc(F)cc1)N1CCC(O)(Cn2cnc3c(ccn3-c3ccccc3)c2=O)CC1 (single isomer, unassigned) [Example 43, 3-[[1-[trans-2-(4-fluorophenyl)cyclohexanecarbonyl]-4-hydroxy-4-piperidyl]methyl]-7-phenyl-pyrrolo[2,3-d]pyrimidin-4-one] | 32.3 nM
14.3 nM | O=C([C@@H]1CCCC[C@H]1c1ccccc1)N1CCC(O)(Cn2cnc3c(cnn3-c3ccccc3)c2=O)CC1 (relative stereo) [Example 19, 5-[[4-hydroxy-1-(trans-2-phenylcyclohexanecarbonyl)-4-piperidyl]methyl]-1-phenyl-pyrazolo[3,4-d]pyrimidin-4-one] | 195 nM
30.9 nM | COc1ccc(-n2ccc3c(=O)n(CC4(O)CCN(C(=O)C5CCC(=O)N(C)C5c5ccccc5)CC4)cnc32)cc1 (single isomer, unassigned) [Example 117, 3-{[4-hydroxy-1-trans-1-methyl-6-oxo-2-phenylpiperidine-3-carbonyl)piperidin-4-yl]methyl}-7-(4-methoxyphenyl)-3,7-dihydro-4H-pyrrolo[2,3-d]pyrimidin-4-one] | 26.4 nM
35.9 nM | O=C([C@@H]1CCCC[C@H]1c1ccccc1)N1CCC(O)(Cn2cnc3c(ccn3-c3ccccc3)c2=O)CC1 (relative stereo) [Example 9, 3-[[4-hydroxy-1-(trans-2-phenylcyclohexanecarbonyl)-4-piperidyl]methyl]-7-phenyl-pyrrolo[2,3-d]pyrimidin-4-one] | 13.9 nM
46.3 nM | O=C(C1CC(F)CCC1c1ccccc1)N1CCC(O)(Cn2cnc3c(ccn3-c3ccccc3)c2=O)CC1 (stereo not shown) [Example 37, 3-[[1-[5-fluoro-2-phenyl-cyclohexanecarbonyl]-4-hydroxy-4-piperidyl]methyl]-7-phenyl-pyrrolo[2,3-d]pyrimidin-4-one] | 84.1 nM
611 nM | O=C([C@@H]1CCC(F)(F)C[C@H]1c1ccncc1)N1CCC(O)(Cn2cnc3c(-c4ccccc4)scc3c2=O)CC1 (relative stereo) [Example 84, 3-[[1-[trans-4,4-difluoro-2-(4-pyridyl)cyclohexanecarbonyl]-4-hydroxy-4-piperidyl]methyl]-7-phenyl-thieno[3,4-d]pyrimidin-4-one] | –
205 nM | O=C([C@@H]1CCC(F)(F)C[C@H]1c1ccccc1)N1CCC(O)(Cn2cnc3c(ccn3C3CC3)c2=O)CC1 (single isomer, unassigned) [Example 116, 7-cyclopropyl-3-[[1-[trans-4,4-difluoro-2-phenyl-cyclohexanecarbonyl]-4-hydroxy-4-piperidyl]methyl]pyrrolo[2,3-d]pyrimidin-4-one] | –
471 nM | Cn1ccc2c(=O)n(CC3(O)CCN(C(=O)[C@@H]4CCC(F)(F)C[C@H]4c4ccccc4)CC3)cnc21 (single isomer, unassigned) [Example 112, 3-[[1-[trans-4,4-difluoro-2-phenyl-cyclohexanecarbonyl]-4-hydroxy-4-piperidyl]methyl]-7-methyl-pyrrolo[2,3-d]pyrimidin-4-one] | –
13300 nM | COc1ccc(-n2ccc3c(=O)n(CC4(O)CCN(C(=O)[C@@H]5OCCO[C@@H]5c5ccccc5)CC4)cnc32)cc1 (single isomer, unassigned) [Example 8, 3-[[4-hydroxy-1-[cis-3-phenyl-1,4-dioxane-2-carbonyl]-4-piperidyl]methyl]-7-(4-methoxyphenyl)pyrrolo[2,3-d]pyrimidin-4-one] | –
72.3 nM | COc1ccc(-n2ccc3c(=O)n(CC4(O)CCN(C(=O)[C@@H]5C(C)=CCC[C@H]5c5ccsc5)CC4)cnc32)cc1 (single isomer, unassigned) [Example 61, 3-[[4-hydroxy-1-[trans-2-methyl-6-(3-thienyl)cyclohex-2-ene-1-carbonyl]-4-piperidyl]methyl]-7-(4-methoxyphenyl)pyrrolo[2,3-d]pyrimidin-4-one] | –
2550 nM | O=C(C1CCCC(O)C1c1ccccc1)N1CCC(O)(Cn2cnc3c(ccn3-c3ccccc3)c2=O)CC1 (single isomer, unassigned) [Example 56, (1S,2S,3S or 1R,2R,3R)-3-[[4-hydroxy-1-[3-hydroxy-2-phenyl-cyclohexanecarbonyl]-4-piperidyl]methyl]-7-phenyl-pyrrolo[2,3-d]pyrimidin-4-one] | –
